The EC50 is the midpoint of the concentration-response curve. High values mean weaker potency, low ones greater potency.

One test concerns the target TLR7 (Homo sapiens (Human), UniProt Q9NYK1). Kind of test: TLR7 agonist bioactivity: induction of IFNα protein in pDC-enriched PBMC cultures (ELISA, 24 h). In kind it is cell-based. Conditions: for EC50: IFNα induction, pDC-enriched human PBMC, 24 hours; for fold loss of TLR7 agonist potency compared to Compound No. 63-00 (IMDQ): less potent than IMDQ; for TLR7 (% of Compound No. 63-00 EC50 Value): EC50 expressed as percentage of EC50 of Compound No. 63-00. As to the method: Plasmacytoid dendritic cell (pDC)—enriched peripheral blood mononuclear cells (PBMCs) were prepared from the blood of a series of human donors (3-5 donors/experiment). PBMCs were isolated using Ficoll-Paque Premium® (GE Healthcare, Chicago Ill.) using methods well known to those in the art. pDCs were magnetically isolated from the total recovered PBMC population using CD304 (BDCA-4/Neuropilin-1) microbeads (Miltenyi Biotec, San Diego Calif.), according to the manufacturer's instructions. Isolated pDCs were then added back to between 1 and 2×10^8 of the corresponding donor's PBMCs for relative enrichment of this cell type. […] Culture supernatants were collected and interferon-alpha (IFNα) protein levels were measured by ELISA (MabTech, Cincinnati Ohio), according to the manufacturer's instructions.
On the technique in general: An ELISA detects its analyte on a solid surface through an enzyme-linked reagent.

The next test deals with TLR8 (Homo sapiens (Human), UniProt Q9NR97). Kind of test: TLR8 agonist bioactivity: induction of TNFα protein in monocyte cultures (ELISA, 24 h). In kind it is cell-based. To be noted: for EC50: TNFα induction, human monocytes, 24 hours; for fold loss of TLR8 agonist potency compared to Compound No. 63-00 (IMDQ): less potent than IMDQ; for TLR8 (% of Compound No. 63-00 EC50 Value): EC50 expressed as percentage of EC50 of Compound No. 63-00; for fold increase of TLR8 agonist potency compared to Compound No. 63-00 (IMDQ): more potent than IMDQ. The procedure:
Monocytes were magnetically isolated from PBMCs, prepared as described above, following labeling with CD14 microbeads (Miltenyi Biotec, San Diego Calif.), according to the manufacturer's instructions. […] Culture supernatants were collected and tumor necrosis factor alpha (TNFα) protein levels were measured by ELISA (MabTech, Cincinnati Ohio), according to the manufacturer's instructions.

Chain of TLR8 (Q9NR97 27-1041): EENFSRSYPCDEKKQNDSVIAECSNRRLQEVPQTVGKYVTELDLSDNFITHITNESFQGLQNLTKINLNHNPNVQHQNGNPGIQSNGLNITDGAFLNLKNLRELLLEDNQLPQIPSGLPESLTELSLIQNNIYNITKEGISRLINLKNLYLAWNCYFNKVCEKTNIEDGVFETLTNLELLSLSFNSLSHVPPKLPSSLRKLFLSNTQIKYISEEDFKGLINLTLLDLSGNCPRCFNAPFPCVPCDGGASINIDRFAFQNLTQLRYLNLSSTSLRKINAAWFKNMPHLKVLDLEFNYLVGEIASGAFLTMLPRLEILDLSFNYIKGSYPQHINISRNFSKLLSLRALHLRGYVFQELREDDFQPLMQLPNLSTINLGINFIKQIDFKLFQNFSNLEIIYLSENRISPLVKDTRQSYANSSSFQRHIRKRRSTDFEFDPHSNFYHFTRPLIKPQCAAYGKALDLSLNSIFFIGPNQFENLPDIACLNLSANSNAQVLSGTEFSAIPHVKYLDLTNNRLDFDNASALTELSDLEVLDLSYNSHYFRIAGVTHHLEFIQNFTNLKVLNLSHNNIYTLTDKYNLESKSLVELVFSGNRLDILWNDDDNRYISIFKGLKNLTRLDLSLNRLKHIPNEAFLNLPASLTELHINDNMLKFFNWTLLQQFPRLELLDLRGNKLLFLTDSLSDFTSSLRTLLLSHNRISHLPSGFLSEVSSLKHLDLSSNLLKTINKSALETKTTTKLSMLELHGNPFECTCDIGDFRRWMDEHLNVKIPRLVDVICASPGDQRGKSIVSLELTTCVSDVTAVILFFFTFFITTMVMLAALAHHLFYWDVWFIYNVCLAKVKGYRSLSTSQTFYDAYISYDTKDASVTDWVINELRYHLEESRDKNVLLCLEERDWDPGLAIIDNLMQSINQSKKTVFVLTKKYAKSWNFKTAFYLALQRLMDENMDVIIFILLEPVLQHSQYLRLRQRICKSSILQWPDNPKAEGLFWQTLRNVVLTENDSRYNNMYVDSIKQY
Chain of TLR7 (Q9NYK1 27-1049): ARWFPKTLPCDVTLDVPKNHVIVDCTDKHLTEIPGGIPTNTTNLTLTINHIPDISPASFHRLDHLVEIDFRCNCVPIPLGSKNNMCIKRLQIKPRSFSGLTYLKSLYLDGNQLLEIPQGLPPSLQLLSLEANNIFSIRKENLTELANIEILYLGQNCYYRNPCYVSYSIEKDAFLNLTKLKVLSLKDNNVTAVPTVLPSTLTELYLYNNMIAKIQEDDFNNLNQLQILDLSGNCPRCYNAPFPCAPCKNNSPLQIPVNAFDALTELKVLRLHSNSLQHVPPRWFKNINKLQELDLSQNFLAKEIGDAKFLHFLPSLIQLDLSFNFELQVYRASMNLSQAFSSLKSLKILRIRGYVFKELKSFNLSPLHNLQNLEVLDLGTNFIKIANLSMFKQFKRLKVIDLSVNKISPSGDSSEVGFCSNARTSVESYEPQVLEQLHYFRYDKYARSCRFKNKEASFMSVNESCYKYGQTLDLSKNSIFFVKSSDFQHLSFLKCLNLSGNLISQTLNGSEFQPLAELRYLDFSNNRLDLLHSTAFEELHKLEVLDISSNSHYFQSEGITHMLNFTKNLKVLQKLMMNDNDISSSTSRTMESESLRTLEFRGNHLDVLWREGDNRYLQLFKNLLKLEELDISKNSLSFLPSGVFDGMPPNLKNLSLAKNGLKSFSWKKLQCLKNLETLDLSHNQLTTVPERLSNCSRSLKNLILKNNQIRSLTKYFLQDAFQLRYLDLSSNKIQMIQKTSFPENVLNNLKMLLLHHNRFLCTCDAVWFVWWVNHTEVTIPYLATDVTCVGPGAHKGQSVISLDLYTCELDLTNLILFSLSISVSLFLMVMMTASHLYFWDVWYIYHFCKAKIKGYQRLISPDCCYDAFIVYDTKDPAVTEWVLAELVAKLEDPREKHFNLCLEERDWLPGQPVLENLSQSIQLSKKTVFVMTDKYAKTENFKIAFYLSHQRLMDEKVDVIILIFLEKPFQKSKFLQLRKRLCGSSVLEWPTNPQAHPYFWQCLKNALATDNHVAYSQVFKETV

The molecule `CCCCCCCCC(=O)NCc1ccc(Cn2c(CCCC)nc3c(N)nc4ccccc4c32)cc1` [Compound No. 63-05, N-(4-((4-amino-2-butyl-1H-imidazo[4,5-c]quinolin-1-yl)methyl)benzyl)nonanamide] gave a concentration for a half-maximal effect (EC50) at TLR7 of 3 nM. Further, at TLR8, a half-maximal effect (EC50) was put at 2170 nM and the “fold loss of TLR8 agonist potency compared to Compound No. 63-00 (IMDQ)” value was 10-26 fold.

`CCCCCCCCCC(=O)NCc1ccc(Cn2c(CCCC)nc3c(N)nc4ccccc4c32)cc1` [Compound No. 63-06, N-(4-((4-amino-2-butyl-1H-imidazo[4,5-c]quinolin-1-yl)methyl)benzyl)decanamide] returned an EC50 on TLR7 of 2 nM. Besides, at TLR8, the EC50 amounted to 2750 nM and the “fold loss of TLR8 agonist potency compared to Compound No. 63-00 (IMDQ)” value is recorded as 10-26 fold.

As to `CCCCCCCCCCC(=O)NCc1ccc(Cn2c(CCCC)nc3c(N)nc4ccccc4c32)cc1` [Compound No. 63-07, N-(4-((4-amino-2-butyl-1H-imidazo[4,5-c]quinolin-1-yl)methyl)benzyl)undecanamide], the response at TLR7 was half-maximal at 1 nM (EC50). Besides, on TLR8, the EC50 was 2640 nM and the “fold loss of TLR8 agonist potency compared to Compound No. 63-00 (IMDQ)” value is 10-26 fold.

`CCCCCCCCCCCC(=O)NCc1ccc(Cn2c(CCCC)nc3c(N)nc4ccccc4c32)cc1` [Compound No. 63-08, N-(4-((4-amino-2-butyl-1H-imidazo[4,5-c]quinolin-1-yl)methyl)benzyl)dodecanamide]: the EC50 was found to be 3 nM on TLR7 and 1270 nM at TLR8. The “fold loss of TLR8 agonist potency compared to Compound No. 63-00 (IMDQ)” value on TLR8 is “did not lose as much agonist activity”.

Consider `CCCCCCCCCCCCC(=O)NCc1ccc(Cn2c(CCCC)nc3c(N)nc4ccccc4c32)cc1` [Compound No. 63-09, N-(4-((4-amino-2-butyl-1H-imidazo[4,5-c]quinolin-1-yl)methyl)benzyl)tridecanamide], for which the results for the half-maximal effective concentration (EC50) at TLR7 and on TLR8 were 2 nM and 970 nM, respectively. Further, the “fold loss of TLR8 agonist potency compared to Compound No. 63-00 (IMDQ)” value at TLR8 is on record as “did not lose as much agonist activity”.

Consider `CCCCCCCNCc1ccc(Cn2c(CCCC)nc3c(N)nc4ccccc4c32)cc1` [Compound No. 63-19, 2-butyl-1-(4-((heptylamino)methyl)benzyl)-1H-imidazo[4,5-c]quinolin-4-amine], for which the EC50 at TLR7 was found to be 24 nM; at TLR8 it was 752 nM.

As for `CCCCCCCCNCc1ccc(Cn2c(CCCC)nc3c(N)nc4ccccc4c32)cc1` [Compound No. 63-20, 2-butyl-1-(4-((octylamino)methyl)benzyl)-1H-imidazo[4,5-c]quinolin-4-amine], the EC50 at TLR7 was 51 nM; at TLR8, 1220 nM.

On to `CCCCCCCCCNCc1ccc(Cn2c(CCCC)nc3c(N)nc4ccccc4c32)cc1` [Compound No. 63-21, 2-butyl-1-(4-((nonylamino)methyl)benzyl)-1H-imidazo[4,5-c]quinolin-4-amine], for which the EC50 turned out to be 68 nM on TLR7 and 947 nM on TLR8.

For `CCCCCCCCCCNCc1ccc(Cn2c(CCCC)nc3c(N)nc4ccccc4c32)cc1` [Compound No. 63-22, 2-butyl-1-(4-((decylamino)methyl)benzyl)-1H-imidazo[4,5-c]quinolin-4-amine], the results for the EC50 at TLR7 and on TLR8 were 62 nM and 821 nM, respectively.

For `CCCCCCCCCCCCNCc1ccc(Cn2c(CCCC)nc3c(N)nc4ccccc4c32)cc1` [Compound No. 63-24, 2-butyl-1-(4-((dodecylamino)methyl)benzyl)-1H-imidazo[4,5-c]quinolin-4-amine], the EC50 on TLR7 was determined as 32 nM; on TLR8, 1040 nM.

In the case of `CCCCCCCCCCCCCCCCCCNCc1ccc(Cn2c(CCCC)nc3c(N)nc4ccccc4c32)cc1` [Compound No. 63-29, 2-butyl-1-(4-((octadecylamino)methyl)benzyl)-1H-imidazo[4,5-c]quinolin-4-amine], on TLR7, it took 19 nM to reach a half-maximal effect (EC50) and the “fold loss of TLR7 agonist potency compared to Compound No. 63-00 (IMDQ)” value stood at 19 fold. Also, at TLR8, the response was half-maximal at 2770 nM (EC50) and the “fold loss of TLR8 agonist potency compared to Compound No. 63-00 (IMDQ)” value is “over 12 fold”.

In the case of `CCCCCCCCCCCCCCCC(=O)NCc1ccc(Cn2c(CCCC)nc3c(N)nc4ccccc4c32)cc1` [Compound No. 63-31, N-(4-((4-amino-2-butyl-1H-imidazo[4,5-c]quinolin-1-yl)methyl)benzyl)palmitamide, reference compound], the EC50 at TLR7 amounted to 3 nM. For the same molecule, on TLR8, a half-maximal effect (EC50) was put at 2150 nM and the “fold loss of TLR8 agonist potency compared to Compound No. 63-00 (IMDQ)” value is reported as 10-26 fold.

In the case of `CCCCCCCCCCCCCCCCNCc1ccc(Cn2c(CCCC)nc3c(N)nc4ccccc4c32)cc1` [Compound No. 63-32, 2-butyl-1-(4-((hexadecylamino)methyl)benzyl)-1H-imidazo[4,5-c]quinolin-4-amine, reference compound], the EC50 on TLR7 turned out to be 157 nM; at TLR8, 3100 nM.

Regarding `CCCCc1nc2c(N)nc3ccccc3c2n1Cc1ccc(CNC(=O)CC2CC2)cc1` [Compound No. 63-34, N-(4-((4-amino-2-butyl-1H-imidazo[4,5-c]quinolin-1-yl)methyl)benzyl)-2-cyclopropylacetamide], at TLR7, the EC50 is 8 nM and the “fold loss of TLR7 agonist potency compared to Compound No. 63-00 (IMDQ)” value was determined as 8 fold. For the same molecule, at TLR8, a half-maximal effect (EC50) was put at 1490 nM and the “fold loss of TLR8 agonist potency compared to Compound No. 63-00 (IMDQ)” value was 7 fold.

In the case of `CCCCc1nc2c(N)nc3ccccc3c2n1Cc1ccc(CNCCC2CCC2)cc1` [Compound No. 63-35, 2-butyl-1-(4-(((2-cyclobutylethyl)amino)methyl)benzyl)-1H-imidazo[4,5-c]quinolin-4-amine], on TLR7, the “TLR7 (% of Compound No. 63-00 EC50 Value)” value was 715% and the EC50 amounted to 12 nM. Further, at TLR8, the “TLR8 (% of Compound No. 63-00 EC50 Value)” value is 53% and the EC50 was found to be 70 nM.

On to `CCCCc1nc2c(N)nc3ccccc3c2n1Cc1ccc(CNCCC2CCCC2)cc1` [Compound No. 63-36, 2-butyl-1-(4-(((2-cyclopentylethyl)amino)methyl)benzyl)-1H-imidazo[4,5-c]quinolin-4-amine], for which, at TLR7, the “TLR7 (% of Compound No. 63-00 EC50 Value)” value was 1,085%, the EC50 stood at 11 nM and the “fold loss of TLR7 agonist potency compared to Compound No. 63-00 (IMDQ)” value was 10.9 fold. For the same molecule, on TLR8, the “TLR8 (% of Compound No. 63-00 EC50 Value)” value is reported as 72% and the EC50 turned out to be 117 nM.

Consider `CCCCc1nc2c(N)nc3ccccc3c2n1Cc1ccc(CNCC2CC2)cc1` [Compound No. 63-38, 2-butyl-1-(4-(((cyclopropylmethyl)amino)methyl)benzyl)-1H-imidazo[4,5-c]quinolin-4-amine], for which, at TLR7, the “TLR7 (% of Compound No. 63-00 EC50 Value)” value came out at 345%. The “TLR8 (% of Compound No. 63-00 EC50 Value)” value on TLR8 came out at 37%.

As to `CCCCc1nc2c(N)nc3ccccc3c2n1Cc1ccc(CNCC2CC2C)cc1` (stereo not shown) [Compound No. 63-39, 2-butyl-1-(4-((((2-methylcyclopropyl)methyl)amino)methyl)benzyl)-1H-imidazo[4,5-c]quinoline-4-amine], the “TLR7 (% of Compound No. 63-00 EC50 Value)” value on TLR7 is 220%. On TLR8, the “TLR8 (% of Compound No. 63-00 EC50 Value)” value came to 48%.

As to `CCCCc1nc2c(N)nc3ccccc3c2n1Cc1ccc(CNCC2CC2(C)C)cc1` (stereo not shown) [Compound No. 63-40, 2-butyl-1-(4-((((2,2-dimethylcyclopropyl)methyl)amino)methyl)benzyl)-1H-imidazo[4,5-c]quinolin-4-amine], on TLR7, the “TLR7 (% of Compound No. 63-00 EC50 Value)” value was 215%. At TLR8, the “TLR8 (% of Compound No. 63-00 EC50 Value)” value is recorded as 51%.

As to `CCCCc1nc2c(N)nc3ccccc3c2n1Cc1ccc(CNCC(C)(C)C2CC2)cc1` [Compound No. 63-41, 2-butyl-1-(4-(((2-cyclopropyl-2-methylpropyl)amino)methyl)benzyl)-1H-imidazo[4,5-c]quinoline-4-amine], on TLR7, the “TLR7 (% of Compound No. 63-00 EC50 Value)” value is 360%. Moreover, the “TLR8 (% of Compound No. 63-00 EC50 Value)” value on TLR8 is 43%.

Regarding `CCCCc1nc2c(N)nc3ccccc3c2n1Cc1ccc(CNCCC2(C)CC2)cc1` [Compound No. 63-42, 2-butyl-1-(4-(((2-(1-methylcyclopropyl)ethyl)amino)methyl)benzyl)-1H-imidazo[4,5-c]quinolin-4-amine], the “TLR7 (% of Compound No. 63-00 EC50 Value)” value at TLR7 is 445%. For the same molecule, at TLR8, the “TLR8 (% of Compound No. 63-00 EC50 Value)” value is listed as 85% and the “fold increase of TLR8 agonist potency compared to Compound No. 63-00 (IMDQ)” value was “slightly improved to slightly inferior”.

For `CCCCc1nc2c(N)nc3ccccc3c2n1Cc1ccc(CNCCCC2CC2)cc1` [Compound No. 63-43, 2-butyl-1-(4-(((3-cyclopropylpropyl)amino)methyl)benzyl)-1H-imidazo[4,5-c]quinolin-4-amine], the “TLR7 (% of Compound No. 63-00 EC50 Value)” value on TLR7 worked out at 440%. Further, the “TLR8 (% of Compound No. 63-00 EC50 Value)” value on TLR8 stood at 77%.

In the case of `CCCCc1nc2c(N)nc3ccccc3c2n1Cc1ccc(CNCC2CCC2)cc1` [Compound No. 63-44, 2-butyl-1-(4-(((cyclobutylmethyl)amino)methyl)benzyl)-1H-imidazo[4,5-c]quinolin-4-amine], at TLR7, the “TLR7 (% of Compound No. 63-00 EC50 Value)” value is listed as 120% and the “fold loss of TLR7 agonist potency compared to Compound No. 63-00 (IMDQ)” value is on record as 1.2 fold. In addition, at TLR8, the “TLR8 (% of Compound No. 63-00 EC50 Value)” value is on record as 17% and the “fold increase of TLR8 agonist potency compared to Compound No. 63-00 (IMDQ)” value was found to be 5.9 fold.

The record behind these values is patent US11124510B2, “Alkyl chain modified imidazoquinoline TLR7/8 agonist compounds and uses thereof” (Dynavax Technologies Corporation, priority 2017, dated 2021).
